Data published in patent US20160263072A1, “MONOACYLGLYCEROLS AND FAT-SOLUBLE NUTRIENTS FOR USE IN THE TREATMENT OF MALABSORPTION HAVING A NON-MECHANICAL BASIS” (NESTEC S.A., priority 2013, published 2016).

What was measured:
[1] = Lipid maldigestion or malabsorption rat model (XENICAL-induced): EPA level in red blood cell and tissue lipids; format: in vivo; conditions: rats
Experimental: The concept was tested in a lipid maldigestion or malabsorption rat model. The maldigestion or malabsorption condition was obtained using XENICAL® (ORLISTAT), a pancreatic and gastric lipases inhibitor (tetrahydrolipstatin; see FIG. 7). Rats were fed during 21 days with long-chain polyunsaturated fatty acid (LC-PUFA) supplements containing mainly eicosapentaenoic (EPA) acid. Fish oil was used as a source of triacylglycerols, and different EPA glycerides were evaluated. XENICAL® (ORLISTAT) was given at a level sufficient to decrease lipid absorption by 40%. A group receiving fish oil without XENICAL® (ORLISTAT) was used as a positive control. At different time intervals (D3, D7, […]), the fatty acid profiles of red blood cell and plasma lipids were determined. At the end of the experiment, the fatty acid profiles of different tissues were determined. The main objective was to follow the level of EPA in red blood cell and plasma lipids. The main comparison evaluated was the difference in EPA level between the group receiving EPA-containing sn-1(3) MAG in combination with XENICAL® (ORLISTAT) and the positive control group (fish oil+XENICAL® (ORLISTAT)).

[2] = Clinical study: delivery of EPA by sn-1(3) MAG vs fish oil (TAG) under XENICAL (ORLISTAT)-induced lipid maldigestion; format: in vivo, humans
Experimental: This clinical study compared the efficacy of sn-1(3) MAG and fish oil (TAG) in delivering EPA in humans under lipid maldigestion conditions induced by XENICAL® (ORLISTAT). The comparison was tested in volunteers having a BMI of 37-40 kg/m^2 and treated with ORLISTAT® to induce lipid maldigestion or not treated with XENICAL® (ORLISTAT). The primary objective was to assess accretion of EPA in erythrocytes over 21 days when consumed as fish oil (TAG) or sn-1(3) MAG. The secondary objectives were to assess accretion of EPA in plasma over 21 days and also to assess the pharmacokinetics of EPA after an acute dose either in the form of sn-1(3) MAG or TAG (AUC in chylomicrons over 10 hours postprandial).

Compound	EPA incorporation in red blood cells ([1]; day 7, fish oil + XENICAL vs fish oil without XENICAL)	chronic effect: accretion of EPA in erythrocytes after 21 days ([2]; humans, with XENICAL, vs fish oil and XENICAL, p=0.0001)	chronic effect: accretion of EPA in plasma after 21 days ([2]; humans, with XENICAL, vs fish oil and XENICAL, p=0.0003)	carrier for EPA compared with fish oil (TAG) ([2]; obese subjects treated with XENICAL)	incorporation of LC-PUFAs in tissue ([1]; conditions of lipid maldigestion or malabsorption)
CCCCCCCCCCC[C@@H](C[C@@H]1OC(=O)[C@H]1CCCCCC)OC(=O)[C@H](CC(C)C)NC=O [XENICAL® (ORLISTAT), tetrahydrolipstatin, reference compound]	decreases EPA incorporation in red blood cells	–	–	–	–
CC/C=C\C/C=C\C/C=C\C/C=C\C/C=C\CCCC(=O)OC[C@@H](O)CO [sn-1(3) MAG, 1,3 MAG-EPA]	–	statistically significant	statistically significant	better carrier for EPA than fish oil	improved
